Data as given in ChEMBL document CHEMBL3351703, “Probing the selective antitumor activity of 22-oxo-26-selenocyanocholestane derivatives” (Eur J Med Chem, 2014).
The source made the active and inactive calls. No cut-off for these calls is given here.

Key:
ViBo [1] = test: Induction of apoptosis in human ViBo cells assessed as caspase-3 activation at 10 to 18 uM after 15 mins by DAPI staining-based epifluorescence microscopic analysis; assay type: functional, cell-based
[2] = Cell cycle arrest in human ViBo cells assessed as accumulation at sub-G1 phase at IC50 after 24 hrs by propidium iodide staining-based flow cytometric analysis relative to control; assay type: functional
[3] = Cell cycle arrest in human ViBo cells assessed as accumulation at G1 phase at IC50 after 24 hrs by propidium iodide staining-based flow cytometric analysis relative to control; assay type: functional
ViBo [4] = test: Induction of apoptosis in human ViBo cells assessed as DNA fragmentation at 10 to 18 uM after 24 hrs by TUNEL assay; assay type: functional, cell-based
HeLa [5] = test: Antiproliferative activity against human HeLa cells after 24 hrs by MTT assay; assay type: functional, cell-based
ViBo [6] = test: Induction of apoptosis in human ViBo cells assessed as chromatin condensation by DAPI staining-based fluorescence microscopic analysis; assay type: functional, cell-based
[7] = Cytotoxicity against PHA-activated human lymphocytes at IC50 after 72 hrs by LDH release assay; assay type: cell-based; settings: lymphocyte
[8] = Cell cycle arrest in human CaSki cells assessed as accumulation at G2/M phase at IC50 after 24 hrs by propidium iodide staining-based flow cytometric analysis relative to control; assay type: functional; settings: Ca-Ski
HeLa [9] = test: Induction of apoptosis in human HeLa cells assessed as chromatin condensation by DAPI staining-based fluorescence microscopic analysis; assay type: functional, cell-based
[10] = Cytotoxicity against human ViBo cells at IC50 after 24 hrs by LDH release assay relative to control; assay type: functional
HeLa [11] = test: Induction of apoptosis in human HeLa cells assessed as DNA fragmentation at 10 to 18 uM after 24 hrs by TUNEL assay; assay type: functional, cell-based
Ca-Ski [12] = test: Induction of apoptosis in human CaSki cells assessed as chromatin condensation by DAPI staining-based fluorescence microscopic analysis; assay type: functional, cell-based
HeLa [13] = test: Cell cycle arrest in human HeLa cells assessed as accumulation at sub-G1 phase at IC50 after 24 hrs by propidium iodide staining-based flow cytometric analysis relative to control; assay type: functional
[14] = Cell cycle arrest in human ViBo cells assessed as accumulation at S phase at IC50 after 24 hrs by propidium iodide staining-based flow cytometric analysis relative to control; assay type: functional
[15] = Cell cycle arrest in human CaSki cells assessed as accumulation at G1 phase at IC50 after 24 hrs by propidium iodide staining-based flow cytometric analysis relative to control; assay type: functional; settings: Ca-Ski
HeLa [16] = test: Cytotoxicity against human HeLa cells at IC50 after 24 hrs by LDH release assay relative to control; assay type: functional
Ca-Ski [17] = test: Induction of apoptosis in human CaSki cells assessed as effect on cell morphology; assay type: functional, cell-based
HeLa [18] = test: Induction of apoptosis in human HeLa cells assessed as caspase-3 activation at 10 to 18 uM after 15 mins by DAPI staining-based epifluorescence microscopic analysis; assay type: functional, cell-based
PBMC = test: Immunosuppressive activity in PHA-stumulated CSFE labeled human enriched PBMC assessed as cell growth at IC50 after 72 hrs by flow cytometric analysis (reference value: 65.90%); assay type: functional
Ca-Ski [19] = test: Induction of apoptosis in human CaSki cells assessed as DNA fragmentation at 10 to 18 uM after 24 hrs by TUNEL assay; assay type: functional, cell-based
[20] = Cell cycle arrest in human CaSki cells assessed as accumulation at sub-G1 phase at IC50 after 24 hrs by propidium iodide staining-based flow cytometric analysis relative to control; assay type: functional; settings: Ca-Ski
HeLa [21] = test: Cell cycle arrest in human HeLa cells assessed as accumulation at S phase at IC50 after 24 hrs by propidium iodide staining-based flow cytometric analysis relative to control; assay type: functional
ViBo [22] = test: Induction of apoptosis in human ViBo cells assessed as effect on cell morphology; assay type: functional, cell-based
[23] = Cell cycle arrest in human ViBo cells assessed as accumulation at G2/M phase at IC50 after 24 hrs by propidium iodide staining-based flow cytometric analysis relative to control; assay type: functional
HeLa [24] = test: Induction of apoptosis in human HeLa cells assessed as effect on cell morphology; assay type: functional, cell-based
Ca-Ski [25] = test: (§1) Antiproliferative activity against human CaSki cells after 24 hrs by MTT assay; assay type: functional, cell-based
[26] = as §1; assay type: functional, cell-based; settings: Ca-Ski
[27] = Cytotoxicity against human CaSki cells at IC50 after 24 hrs by LDH release assay relative to control; assay type: functional, Ca-Ski
HeLa [28] = test: Cell cycle arrest in human HeLa cells assessed as accumulation at G2/M phase at IC50 after 24 hrs by propidium iodide staining-based flow cytometric analysis relative to control; assay type: functional
Ca-Ski [29] = test: Induction of apoptosis in human CaSki cells assessed as caspase-3 activation at 10 to 18 uM after 15 mins by DAPI staining-based epifluorescence microscopic analysis; assay type: functional, cell-based
[30] = Cell cycle arrest in human CaSki cells assessed as accumulation at S phase at IC50 after 24 hrs by propidium iodide staining-based flow cytometric analysis relative to control; assay type: functional; settings: Ca-Ski
ViBo [31] = test: (§2) Antiproliferative activity against human ViBo cells after 24 hrs by MTT assay; assay type: functional, cell-based
[32] = as §2; assay type: functional, cell-based
HeLa [33] = test: Cell cycle arrest in human HeLa cells assessed as accumulation at G1 phase at IC50 after 24 hrs by propidium iodide staining-based flow cytometric analysis (reference value: 62.51 +/- 3.76%); assay type: functional
ViBo [34] = test: Induction of apoptosis in human ViBo cells assessed as caspase-3 activation at 95 to 97 uM after 15 mins by DAPI staining-based epifluorescence microscopic analysis; assay type: functional, cell-based
HeLa [35] = test: Induction of apoptosis in human HeLa cells assessed as DNA fragmentation at 95 to 97 uM after 24 hrs by TUNEL assay; assay type: functional, cell-based
ViBo [36] = test: Induction of apoptosis in human ViBo cells assessed as DNA fragmentation at 95 to 97 uM after 24 hrs by TUNEL assay; assay type: functional, cell-based
Ca-Ski [37] = test: Induction of apoptosis in human CaSki cells assessed as DNA fragmentation at 95 to 97 uM after 24 hrs by TUNEL assay; assay type: functional, cell-based
Ca-Ski [38] = test: Induction of apoptosis in human CaSki cells assessed as caspase-3 activation at 95 to 97 uM after 15 mins by DAPI staining-based epifluorescence microscopic analysis; assay type: functional, cell-based
HeLa [39] = test: Induction of apoptosis in human HeLa cells assessed as caspase-3 activation at 95 to 97 uM after 15 mins by DAPI staining-based epifluorescence microscopic analysis; assay type: functional, cell-based

Row | Compound | Activity [2] | Activity [3] | Activity (HeLa [5]) | IC50 (HeLa [5]) | Activity (ViBo [6]) | Activity [7] | Activity [8] | Activity (HeLa [9]) | Activity [10] | Activity (Ca-Ski [12]) | Activity (HeLa [13]) | Activity [14] | Activity [15] | Activity (HeLa [16]) | Activity (Ca-Ski [17]) | Activity (PBMC) | Activity [20] | Activity (HeLa [21]) | IC50 [26] | IC50 [32] | further results
1 | CC(=O)O[C@H]1CC[C@@]2(C)C(=CC[C@H]3[C@@H]4C[C@H](OC(C)=O)[C@H]([C@H](C)C(=O)CC[C@@H](C)C[Se]C#N)[C@@]4(C)CC[C@@H]32)C1 | 8.13% | 69.5% | Dose-dependent effect | 10 µM | Active | Non-toxic | 9.68% | Active | 45% | Active | 12.6% | 8.67% | 31.2% | 72% | Active | 51.96% | 41.4% | 17.04% | 15 µM | 18 µM | Activity (ViBo [1]): Active; Activity (ViBo [4]): Active; Activity (HeLa [11]): Active; Activity (HeLa [18]): Active; Activity (Ca-Ski [19]): Active; Activity (ViBo [22]): Active; Activity [23]: 7.27%; Activity (HeLa [24]): Active; Activity (Ca-Ski [25]): Dose-dependent effect; Activity [27]: 33%; Activity (HeLa [28]): 11.58%; Activity (Ca-Ski [29]): Active; Activity [30]: 18.9%; Activity (ViBo [31]): Dose-dependent effect; Activity (HeLa [33]): 56.19%
2 | CC(=O)O[C@H]1C(=O)[C@@]2(C)[C@H]([C@H](OC(=O)c3ccccc3)[C@]3(O)C[C@H](OC(=O)[C@H](O)[C@@H](NC(=O)c4ccccc4)c4ccccc4)C(C)=C1C3(C)C)[C@]1(OC(C)=O)CO[C@@H]1C[C@@H]2O [PACLITAXEL] | – | – | – | – | – | – | – | – | – | – | – | – | – | – | – | – | – | – | 2.9 µM | 1.6 µM | –
3 | CC(=O)O[C@H]1CC[C@@]2(C)[C@@H](CC[C@@H]3[C@@H]2CC(=O)[C@]2(C)[C@@H]([C@H](C)C(=O)CC[C@@H](C)C[Se]C#N)[C@@H](OC(C)=O)C[C@@H]32)C1 | 10.8% | 59.3% | Dose-dependent effect | 95 µM | Active | Non-toxic | 13.2% | Active | 16% | Active | 4.74% | 16.2% | 49.2% | 27% | Active | 25.28% | 8.2% | 18.54% | 97 µM | 97 µM | Activity (ViBo [34]): Active; Activity (HeLa [35]): Active; Activity (ViBo [22]): Active; Activity [23]: 5.8%; Activity (ViBo [36]): Active; Activity (HeLa [24]): Active; Activity (Ca-Ski [25]): Dose-dependent effect; Activity [27]: 0%; Activity (HeLa [28]): 10.9%; Activity (Ca-Ski [37]): Active; Activity [30]: 19.4%; Activity (Ca-Ski [38]): Active; Activity (ViBo [31]): Dose-dependent effect; Activity (HeLa [33]): 64.04%; Activity (HeLa [39]): Active
